Values quoted from earlier work in Sander's compilation of Henry's law constants (doi:10.1016/s0016-7037(99)00330-0).

Assay: Henry solubility constant Hcp at 298.15 K (mol/(m3 Pa))
Conditions: reference: Plyasunov and Shock (2000); cited value

SMILES | Henry solubility constant Hcp
CC1CCCC(C)(C)C1 (stereo not drawn) [1,1,3-trimethylcyclohexane] | 9.3e-06
CC1CCC(C)(C)C1 (stereo not drawn) [1,1,3-trimethylcyclopentane] | 6.2e-06
c1ccc2c(c1)CCCC2 [1,2,3,4-tetrahydronaphthalene] | 0.0064
Cc1cccc(C)c1C [1,2,3-trimethylbenzene] | 0.0026
Cc1ccc(C)c(C)c1 [1,2,4-trimethylbenzene] | 0.0016
Cc1ccccc1C [1,2-dimethylbenzene] | 0.002
C1=CC=CCC=C1 [1,3,5-cycloheptatriene] | 0.0022
Cc1cc(C)cc(C)c1 [1,3,5-trimethylbenzene] | 0.0013
C=CC=C [1,3-butadiene] | 0.00014
C1=CCC=C1 [1,3-cyclopentadiene] | 0.00018
Cc1cccc(C)c1 [1,3-dimethylbenzene] | 0.0014
C1=CCC=CC1 [1,4-cyclohexadiene] | 0.001
Cc1ccc(C)cc1 [1,4-dimethylbenzene] | 0.0014
C=CCCCC=C [1,6-heptadiene] | 5.6e-05
C#CCCCC#C [1,6-heptadiyne] | 0.0046
C#CCCCCCC#C [1,8-nonadiyne] | 0.003
CCCCCCCO [1-heptanol] | 0.54
C=CCCCCC [1-heptene] | 2.5e-05
CCCCCCO [1-hexanol] | 0.66
Cc1ccccc1C(C)C [1-methyl-2-(1-methylethyl)-benzene] | 0.0016
Cc1cccc(C(C)C)c1 [1-methyl-3-(1-methylethyl)-benzene] | 0.0014
C=C(C)C1CC=C(C)CC1 (stereo not drawn) [1-methyl-4-(1-methylethenyl)-cyclohexene] | 0.00047
CC1=CC=C(C(C)C)CC1 [1-methyl-4-(1-methylethyl)-1,3-cyclohexadiene] | 0.00051
Cc1ccc(C(C)C)cc1 [1-methyl-4-(1-methylethyl)-benzene] | 0.00096
CC1=CCCCC1 [1-methylcyclohexene] | 0.00014

SMILES | Henry solubility constant Hcp
C=CCCCCCCC [1-nonene] | 1.2e-05
C#CCCCCCCC [1-nonyne] | 9.7e-05
CCCCCCCCO [1-octanol] | 0.41
C=CCCCCCC [1-octene] | 1.1e-05
C#CCCCCCC [1-octyne] | 0.00012
CCCCCO [1-pentanol] | 0.89
C=CCCC [1-pentene] | 2.4e-05
C=C1C2CCC(C2)C1(C)C (stereo not drawn) [2,2-dimethyl-3-methylene-bicyclo[2.2.1]heptane] | 0.00023
CCCCC(CC)CO (stereo not drawn) [2-ethyl-1-hexanol] | 0.46
C=CC(=C)C [2-methyl-1,3-butadiene] | 0.00013
CCC(C)(C)O [2-methyl-2-butanol] | 0.71
C=C(C)C [2-methylpropene] | 5.7e-05
CCCCCCC(C)O (stereo not drawn) [2-octanol] | 0.35
CC(C)O [2-propanol] | 1.2
C#CC=C [3-buten-1-yne] | 0.00041
CCC(O)(CC)CC [3-ethyl-3-pentanol] | 0.3
CC(C)CCO [3-methyl-1-butanol] | 0.7
C=CC(C)C [3-methyl-1-butene] | 1.9e-05
C=CCC(C)C [4-methyl-1-pentene] | 1.5e-05
C=C1CCC2(C(C)C)CC12 (stereo not drawn) [4-methylene-1-(1-methylethyl)-bicyclo[3.1.0]hexane] | 0.00015
C=CC(=C)CCC=C(C)C [7-methyl-3-methylene-1,6-octadiene] | 0.0004
CCC(C)c1ccccc1 (stereo not drawn) [(1-methylpropyl)-benzene] | 0.00053
CC(C)Cc1ccccc1 [(2-methylpropyl)-benzene] | 0.00029
CC(C)c1ccccc1 [(2-propyl)-benzene] | 0.00084
c1ccccc1 [benzene] | 0.0018

SMILES | Henry solubility constant Hcp
CCCCc1ccccc1 [butylbenzene] | 0.00071
C[C@@H]1CCCC[C@@H]1C [cis-1,2-dimethylcyclohexane] | 2.8e-05
C1CCCCCC1 [cycloheptane] | 0.0001
OC1CCCCCC1 [cycloheptanol] | 4.6
C1=CCCCCC1 [cycloheptene] | 0.0002
C1CCCCC1 [cyclohexane] | 5.3e-05
C1=CCCCC1 [cyclohexene] | 0.00022
C1CCCCCCC1 [cyclooctane] | 9.3e-05
C1CCCC1 [cyclopentane] | 5.5e-05
OC1CCCC1 [cyclopentanol] | 4.2
C1=CCCC1 [cyclopentene] | 0.00016
C1CC1 [cyclopropane] | 0.00012
CCCCCCCCCC [decane] | 1.1e-06
CCCCCCCCCCc1ccccc1 [decylbenzene] | 8.6e-05
CCCCCCCCCCCC [dodecane] | 1.2e-06
C=C [ethene] | 4.8e-05
C=Cc1ccccc1 [ethenylbenzene] | 0.0029
CCc1ccccc1 [ethylbenzene] | 0.0013
C#C [ethyne] | 0.00041
CCCCCCc1ccccc1 [hexylbenzene] | 0.0004
Cc1ccccc1 [methylbenzene] | 0.0016
CC1CCCCC1 [methylcyclohexane] | 2.4e-05
CC1CCCC1 [methylcyclopentane] | 2.8e-05
CCCCCCCCC [nonane] | 2.1e-06
CCCCCc1ccccc1 [pentylbenzene] | 0.00051

Other lines, results leading:

Henry solubility constant Hcp | SMILES
4.2e-05 | C=CCC [1-butene]
0.00062 | C#CCC [1-butyne]
0.00018 | C#CCCCCC [1-heptyne]
0.0003 | C#CCCCC [1-hexyne]
0.00079 | CC1=CCC(=C(C)C)CC1 [1-methyl-4-(1-methylethylidene)-cyclohexene]
1.5 | CCCO [1-propanol]
3e-06 | CC(C)CC(C)(C)C [2,2,4-trimethylpentane]
3.4e-05 | CC(C)(C)C#CC(C)(C)C [2,2,5,5-tetramethyl-3-hexyne]
5.5e-05 | CC(C)C#CC(C)(C)C [2,2,5-trimethyl-3-hexyne]
2.8e-06 | CC(C)CCC(C)(C)C [2,2,5-trimethylhexane]
0.00014 | CCC#CC(C)(C)C [2,2-dimethyl-3-hexyne]
5.6e-06 | CCC(C)(C)C [2,2-dimethylbutane]
3.1e-06 | CCCC(C)(C)C [2,2-dimethylpentane]
4.3e-06 | CC(C)C(C)C(C)C [2,3,4-trimethylpentane]
0.38 | CC(C)C(C)(C)O [2,3-dimethyl-2-butanol]
7.6e-06 | CC(C)C(C)C [2,3-dimethylbutane]
5.7e-06 | CCC(C)C(C)C (stereo not drawn) [2,3-dimethylpentane]
3.3e-06 | CC(C)CC(C)C [2,4-dimethylpentane]
0.99 | CCC(C)O (stereo not drawn) [2-butanol]
0.54 | CCC(CC)CO [2-ethyl-1-butanol]
0.41 | CCCCCC(C)O (stereo not drawn) [2-heptanol]
2.3e-05 | CC=CCCCC [2-heptene]
0.00049 | CC#CCCCC [2-heptyne]
0.52 | CCCCC(C)O (stereo not drawn) [2-hexanol]
0.71 | CCC(C)CO (stereo not drawn) [2-methyl-1-butanol]
3.3e-05 | C=C(C)CCC [2-methyl-1-pentene]
0.85 | CC(C)CO [2-methyl-1-propanol]

Henry solubility constant Hcp | SMILES
6.7e-05 | CC=C(C)C [2-methyl-2-butene]
0.00022 | CCC#CC(C)C [2-methyl-3-hexyne]
7.7e-06 | CCC(C)C [2-methylbutane]
2.9e-06 | CCCCC(C)C [2-methylhexane]
5.7e-06 | CCCC(C)C [2-methylpentane]
9.2e-06 | CC(C)C [2-methylpropane]
0.65 | CCCC(C)O (stereo not drawn) [2-pentanol]
5.3e-06 | CCC(C)(C)CC [3,3-dimethylpentane]
0.31 | CCCCC(O)CC (stereo not drawn) [3-heptanol]
0.42 | CCCC(O)CC (stereo not drawn) [3-hexanol]
0.00055 | CCC#CCC [3-hexyne]
2.7e-06 | CCCCC(C)CC (stereo not drawn) [3-methylheptane]
4.5e-06 | CCCC(C)CC (stereo not drawn) [3-methylhexane]
5.9e-06 | CCC(C)CC [3-methylpentane]
0.55 | CCC(O)CC [3-pentanol]
0.34 | CCCC(O)CCC [4-heptanol]
0.35 | CC(C)CC(C)O (stereo not drawn) [4-methyl-2-pentanol]
9.7e-07 | CCCCC(C)CCC (stereo not drawn) [4-methyloctane]
0.00079 | CC(C)(C)c1ccccc1 [(1,1-dimethylethyl)-benzene]
1.2e-05 | CCCC [butane]
6e-06 | CC(C)(C)C [dimethylpropane]
1.9 | CCO [ethanol]
4.9e-06 | CCCCCCC [heptane]
6.9e-06 | CCCCCC [hexane]
4e-06 | CCCCCCCC [octane]
8.7e-06 | CCCCC [pentane]
